From ChEMBL document CHEMBL4630901 (2021) come the findings set out here.

The target in assay [1] is 5-hydroxytryptamine receptor 3A (Homo sapiens, UniProt P46098). Put plainly: GPCRScan assay: inhibition of 5-HT3. The arrangement: radioligand conc. used [nm] 1.0 – 2.0, parental cells HEKT.
The target in assay [2] is D(3) dopamine receptor (Homo sapiens) (UniProt P35462). The conditions noted are these: Compound concentration 10.0 uM.
Assay [3] addresses Sigma non-opioid intracellular receptor 1 (Homo sapiens) (UniProt Q99720). The conditions noted are these: Compound concentration 10.0 uM.
Assay [4] deals with B1 bradykinin receptor (Homo sapiens) (UniProt P46663). Put plainly: Inhibition of Bradykinin B1 at 10 µM in the Eurofins-Panlabs radioligand binding assay (Eurofins_assay_212510). The following applies: Compound concentration 10.0 uM.
The species entered for the next assay is Oryctolagus cuniculus. Put plainly: Inhibition of Purinergic P2X at 10 µM in the Eurofins-Panlabs radioligand binding assay (Eurofins_assay_268700). It is filed as protein assay. The following applies: Compound concentration 10.0 uM.
Assay [5] concerns the target Prostaglandin F2-alpha receptor (Homo sapiens, UniProt P43088). Put plainly: Prostanoid FP Eurofins-Panlabs radioligand binding assay. Further details: ligand concentration 1 nM.
Assay [6] concerns the target Prostaglandin F2-alpha receptor (Mus musculus, UniProt P43117). Put plainly: Bayer inhouse assay (mouse).
Assay [7] deals with T1, Prostaglandin D2 receptor 2 (Homo sapiens) (UniProt Q9Y5Y4).
T1 sequence (whole entry): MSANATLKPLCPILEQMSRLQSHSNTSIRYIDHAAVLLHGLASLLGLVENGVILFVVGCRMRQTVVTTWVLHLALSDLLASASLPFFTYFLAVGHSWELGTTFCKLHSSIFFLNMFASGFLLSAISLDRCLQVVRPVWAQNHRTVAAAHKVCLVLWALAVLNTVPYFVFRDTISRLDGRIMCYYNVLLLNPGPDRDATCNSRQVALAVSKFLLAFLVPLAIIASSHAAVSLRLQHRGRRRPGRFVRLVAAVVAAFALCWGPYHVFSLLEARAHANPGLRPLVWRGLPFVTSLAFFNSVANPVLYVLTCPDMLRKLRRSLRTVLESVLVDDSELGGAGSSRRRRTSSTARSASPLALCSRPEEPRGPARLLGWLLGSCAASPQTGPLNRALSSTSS
Put plainly: Prostanoid CRTH2 Eurofins-Panlabs radioligand binding assay. Further details: ligand concentration 1 nM.

For assay [8], the target named is T2, Prostaglandin D2 receptor (Homo sapiens) (UniProt Q13258).
T2 sequence (whole entry): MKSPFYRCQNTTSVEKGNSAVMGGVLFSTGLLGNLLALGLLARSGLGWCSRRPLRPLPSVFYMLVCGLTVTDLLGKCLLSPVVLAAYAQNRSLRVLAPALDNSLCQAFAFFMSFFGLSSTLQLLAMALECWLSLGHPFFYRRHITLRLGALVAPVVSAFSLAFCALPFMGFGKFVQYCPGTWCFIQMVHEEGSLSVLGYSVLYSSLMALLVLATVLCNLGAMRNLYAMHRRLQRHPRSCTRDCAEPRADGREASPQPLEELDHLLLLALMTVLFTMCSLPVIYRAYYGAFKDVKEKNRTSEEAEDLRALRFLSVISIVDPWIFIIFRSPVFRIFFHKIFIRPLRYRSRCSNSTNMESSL
Put plainly: Prostanoid DP Eurofins-Panlabs radioligand binding assay. The arrangement: ligand concentration 2 nM.

The target of assay [9] is T3, Prostaglandin E2 receptor EP3 subtype (Homo sapiens) (UniProt P43115).
T3 sequence (whole entry): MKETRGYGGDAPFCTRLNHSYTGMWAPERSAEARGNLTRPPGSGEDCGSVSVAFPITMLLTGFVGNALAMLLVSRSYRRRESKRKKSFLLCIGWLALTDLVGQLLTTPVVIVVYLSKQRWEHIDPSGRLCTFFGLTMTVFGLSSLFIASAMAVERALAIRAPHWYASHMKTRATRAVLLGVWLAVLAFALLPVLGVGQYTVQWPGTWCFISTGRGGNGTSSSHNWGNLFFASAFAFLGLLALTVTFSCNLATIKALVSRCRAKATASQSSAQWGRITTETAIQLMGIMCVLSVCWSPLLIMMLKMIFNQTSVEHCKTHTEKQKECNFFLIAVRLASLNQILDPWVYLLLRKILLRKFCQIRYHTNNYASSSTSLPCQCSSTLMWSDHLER
Put plainly: Prostanoid EP3 Eurofins-Panlabs radioligand binding assay. Further details: ligand concentration 0.5 nM.

The target in assay [10] is D(3) dopamine receptor (Homo sapiens) (UniProt P35462). The following applies: Compound concentration 10.0 uM. This is another data set of the same source.
For assay [11], the target named is GABA-A receptor; anion channel (Rattus norvegicus) (UniProt O09028+P15431+P18506+P18508+P19969+P20236+P23574+P23576+P28471+P28473+P30191+P62813+P63079+P63138+Q91ZM7+Q9ES14). The conditions noted are these: Compound concentration 10.0 uM.
The target in assay [12] is Histamine H1 receptor (Homo sapiens) (UniProt P35367). The conditions noted are these: Compound concentration 10.0 uM.
Assay [13] addresses Purinergic P2Y (Rattus norvegicus) (UniProt O35811+Q9EPX4+P49651+Q63371+P41232+O35881+Q6GUG4). The conditions noted are these: Compound concentration 10.0 uM.
Assay [14] addresses Sodium-dependent serotonin transporter (Homo sapiens) (UniProt P31645). The conditions noted are these: Compound concentration 10.0 uM.
Assay [15] addresses T4, Alpha-2C adrenergic receptor (Homo sapiens) (UniProt P18825).
T4 sequence (whole entry): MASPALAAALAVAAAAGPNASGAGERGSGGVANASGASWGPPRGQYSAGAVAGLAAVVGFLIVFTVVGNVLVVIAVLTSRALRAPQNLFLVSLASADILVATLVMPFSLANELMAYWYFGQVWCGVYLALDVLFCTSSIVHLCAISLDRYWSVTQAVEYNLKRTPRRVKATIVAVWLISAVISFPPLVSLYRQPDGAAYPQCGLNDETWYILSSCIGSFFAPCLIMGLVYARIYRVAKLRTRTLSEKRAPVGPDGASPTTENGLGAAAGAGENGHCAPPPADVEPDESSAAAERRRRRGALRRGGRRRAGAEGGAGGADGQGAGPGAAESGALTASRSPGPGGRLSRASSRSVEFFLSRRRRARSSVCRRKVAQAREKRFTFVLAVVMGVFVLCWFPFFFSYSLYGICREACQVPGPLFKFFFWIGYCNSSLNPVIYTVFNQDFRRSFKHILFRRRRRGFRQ
The conditions noted are these: Compound concentration 10.0 uM.

Assay [16] has as its target 5-hydroxytryptamine receptor 2A (Homo sapiens) (UniProt P28223). The following applies: Compound concentration 10.0 uM.
Setting [17] is: Compound concentration 0.001 uM.

Activity calls are given as the source filed them. The rule behind the calls is not given here.

Sequence of Prostaglandin F2-alpha receptor (Homo sapiens, UniProt P43088) (P43088 whole entry): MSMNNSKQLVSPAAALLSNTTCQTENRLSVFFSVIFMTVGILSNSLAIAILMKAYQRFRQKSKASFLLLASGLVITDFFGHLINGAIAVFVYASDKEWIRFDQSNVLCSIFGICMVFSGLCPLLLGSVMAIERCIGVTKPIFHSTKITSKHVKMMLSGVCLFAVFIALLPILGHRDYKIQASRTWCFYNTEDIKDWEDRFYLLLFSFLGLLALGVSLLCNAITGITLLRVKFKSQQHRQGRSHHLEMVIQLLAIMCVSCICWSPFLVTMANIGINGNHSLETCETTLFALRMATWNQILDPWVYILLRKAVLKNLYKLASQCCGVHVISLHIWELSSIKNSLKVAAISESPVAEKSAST
Sequence of 5-hydroxytryptamine receptor 3A (P46098 whole entry): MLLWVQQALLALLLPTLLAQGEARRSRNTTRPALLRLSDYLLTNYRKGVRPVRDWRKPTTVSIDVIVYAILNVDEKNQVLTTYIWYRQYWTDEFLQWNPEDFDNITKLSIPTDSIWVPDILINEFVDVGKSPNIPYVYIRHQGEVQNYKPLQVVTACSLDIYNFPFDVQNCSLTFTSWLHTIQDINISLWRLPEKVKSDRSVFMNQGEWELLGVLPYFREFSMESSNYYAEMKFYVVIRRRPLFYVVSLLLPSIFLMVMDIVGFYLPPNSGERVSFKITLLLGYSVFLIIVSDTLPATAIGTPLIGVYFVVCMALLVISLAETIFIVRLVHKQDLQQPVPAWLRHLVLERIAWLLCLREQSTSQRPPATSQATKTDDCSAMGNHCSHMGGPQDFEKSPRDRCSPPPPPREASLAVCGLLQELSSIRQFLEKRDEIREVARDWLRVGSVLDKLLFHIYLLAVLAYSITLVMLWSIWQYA
Sequence of D(3) dopamine receptor (Homo sapiens) (P35462 whole entry): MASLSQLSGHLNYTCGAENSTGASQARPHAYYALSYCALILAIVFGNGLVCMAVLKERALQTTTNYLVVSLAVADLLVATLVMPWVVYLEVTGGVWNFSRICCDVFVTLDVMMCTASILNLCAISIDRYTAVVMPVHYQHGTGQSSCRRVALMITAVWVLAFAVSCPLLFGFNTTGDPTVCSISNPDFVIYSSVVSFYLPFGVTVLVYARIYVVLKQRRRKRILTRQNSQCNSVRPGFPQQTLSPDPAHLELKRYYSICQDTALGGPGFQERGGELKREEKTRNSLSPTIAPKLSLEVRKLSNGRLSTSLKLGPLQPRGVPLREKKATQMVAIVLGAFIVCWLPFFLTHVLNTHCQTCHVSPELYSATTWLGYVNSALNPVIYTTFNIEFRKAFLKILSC
Sequence of Histamine H1 receptor (Homo sapiens) (P35367 whole entry): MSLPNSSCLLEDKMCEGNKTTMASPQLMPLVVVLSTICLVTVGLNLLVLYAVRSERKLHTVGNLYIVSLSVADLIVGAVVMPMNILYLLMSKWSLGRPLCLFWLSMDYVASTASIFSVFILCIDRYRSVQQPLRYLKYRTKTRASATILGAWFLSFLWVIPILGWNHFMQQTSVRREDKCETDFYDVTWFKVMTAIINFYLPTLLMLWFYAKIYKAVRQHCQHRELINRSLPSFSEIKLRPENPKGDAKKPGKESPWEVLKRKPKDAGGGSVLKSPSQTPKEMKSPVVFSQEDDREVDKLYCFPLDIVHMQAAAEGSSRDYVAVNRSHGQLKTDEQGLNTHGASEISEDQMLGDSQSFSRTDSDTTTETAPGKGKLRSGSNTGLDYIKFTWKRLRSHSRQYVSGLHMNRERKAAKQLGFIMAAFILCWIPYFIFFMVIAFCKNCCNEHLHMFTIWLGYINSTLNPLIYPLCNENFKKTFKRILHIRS
Sequence of B1 bradykinin receptor (Homo sapiens) (P46663 whole entry): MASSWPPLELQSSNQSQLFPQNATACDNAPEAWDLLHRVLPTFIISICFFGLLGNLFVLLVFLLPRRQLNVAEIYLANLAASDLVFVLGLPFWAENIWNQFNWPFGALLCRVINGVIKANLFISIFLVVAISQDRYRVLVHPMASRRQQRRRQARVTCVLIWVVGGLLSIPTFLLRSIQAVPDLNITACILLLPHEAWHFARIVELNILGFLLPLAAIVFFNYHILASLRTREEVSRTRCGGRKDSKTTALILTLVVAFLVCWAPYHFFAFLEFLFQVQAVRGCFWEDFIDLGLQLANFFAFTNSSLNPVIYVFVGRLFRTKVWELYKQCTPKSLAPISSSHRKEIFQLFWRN
Sequence of 5-hydroxytryptamine receptor 2A (Homo sapiens) (P28223 whole entry): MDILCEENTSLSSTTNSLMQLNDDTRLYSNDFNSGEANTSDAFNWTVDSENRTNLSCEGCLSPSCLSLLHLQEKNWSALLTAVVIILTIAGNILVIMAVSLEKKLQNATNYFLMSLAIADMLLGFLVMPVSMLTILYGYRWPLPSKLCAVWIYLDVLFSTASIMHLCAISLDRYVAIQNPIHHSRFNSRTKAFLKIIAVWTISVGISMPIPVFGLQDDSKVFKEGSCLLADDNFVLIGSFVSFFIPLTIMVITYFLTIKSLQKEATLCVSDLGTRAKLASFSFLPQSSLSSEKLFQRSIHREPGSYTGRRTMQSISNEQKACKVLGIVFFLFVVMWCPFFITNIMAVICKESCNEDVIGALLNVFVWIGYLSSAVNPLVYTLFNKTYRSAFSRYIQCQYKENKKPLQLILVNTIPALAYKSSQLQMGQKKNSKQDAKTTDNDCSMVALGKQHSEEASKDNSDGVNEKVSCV
Sequence of Sodium-dependent serotonin transporter (Homo sapiens) (P31645 whole entry, looked up): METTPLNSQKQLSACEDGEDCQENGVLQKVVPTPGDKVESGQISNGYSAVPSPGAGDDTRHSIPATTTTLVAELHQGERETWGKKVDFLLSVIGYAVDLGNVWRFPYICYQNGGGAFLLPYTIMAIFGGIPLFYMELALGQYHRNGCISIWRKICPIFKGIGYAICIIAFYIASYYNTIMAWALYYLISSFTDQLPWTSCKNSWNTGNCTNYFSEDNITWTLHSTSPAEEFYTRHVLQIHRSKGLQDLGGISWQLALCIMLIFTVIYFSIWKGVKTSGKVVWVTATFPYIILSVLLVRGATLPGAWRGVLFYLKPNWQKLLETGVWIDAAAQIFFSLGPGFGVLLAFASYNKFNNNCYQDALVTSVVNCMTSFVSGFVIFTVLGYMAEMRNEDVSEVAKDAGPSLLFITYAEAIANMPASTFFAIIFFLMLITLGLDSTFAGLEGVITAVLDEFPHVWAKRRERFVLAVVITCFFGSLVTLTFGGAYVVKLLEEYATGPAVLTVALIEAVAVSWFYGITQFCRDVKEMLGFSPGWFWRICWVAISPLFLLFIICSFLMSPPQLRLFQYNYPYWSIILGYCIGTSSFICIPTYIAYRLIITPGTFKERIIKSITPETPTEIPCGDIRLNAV
Sequence of Prostaglandin F2-alpha receptor (Mus musculus, UniProt P43117) (P43117 whole entry): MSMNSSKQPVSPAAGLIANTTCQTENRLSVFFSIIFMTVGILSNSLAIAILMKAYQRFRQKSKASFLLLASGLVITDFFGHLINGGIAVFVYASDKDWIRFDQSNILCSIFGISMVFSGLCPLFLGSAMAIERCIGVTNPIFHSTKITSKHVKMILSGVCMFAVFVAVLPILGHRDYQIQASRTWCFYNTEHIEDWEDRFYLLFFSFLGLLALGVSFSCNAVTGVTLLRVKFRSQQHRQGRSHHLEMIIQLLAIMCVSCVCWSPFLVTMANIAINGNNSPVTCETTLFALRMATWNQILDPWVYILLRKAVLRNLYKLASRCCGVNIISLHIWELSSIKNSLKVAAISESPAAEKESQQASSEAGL
Sequence of Sigma non-opioid intracellular receptor 1 (Homo sapiens) (Q99720 whole entry): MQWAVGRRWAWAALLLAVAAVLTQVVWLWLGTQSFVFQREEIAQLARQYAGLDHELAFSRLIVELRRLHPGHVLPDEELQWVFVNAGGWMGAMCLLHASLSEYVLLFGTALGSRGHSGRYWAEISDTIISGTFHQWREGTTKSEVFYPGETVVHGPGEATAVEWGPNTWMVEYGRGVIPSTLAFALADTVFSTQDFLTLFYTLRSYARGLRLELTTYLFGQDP

Take `Cc1c(N2CCNCC2)nc2ccc(Br)cc2c1C(=O)NC[C@H](CCC(=O)O)c1ccccc1Cl` [BAY-403]: the Ki in assay [1] (read-out: Ki) was 585 nM; in assay [1] (read-out: pKi (converted)) it was 537 nM. Also, the inhibition in assay [2] was 3.81%; in assay [3], 36.5%.
Consider `Cc1c(N2CCCC2)nc2ccc(Br)cc2c1C(=O)NC[C@H](CCC(=O)O)c1ccccc1Cl` [BAY-6672], for which the inhibition in assay [4] is 7%; in the assay filed under Oryctolagus cuniculus, 25%; in assay [5] (setting [17]), 7%; in [5] (Compound concentration 0.01 uM) it was 35%; in assay [5] (Compound concentration 0.1 uM), 79%; in assay [5] (Compound concentration 1.0 uM), 94%. In addition, the inhibition in [5] (Compound concentration 10.0 uM) was 97%; in assay [7] (setting [17]) it was 3%; in assay [7] (Compound concentration 0.01 uM) it was 2%; in assay [7] (Compound concentration 0.1 uM), -3%; in [7] (Compound concentration 1.0 uM) it was -6%; in assay [7] (Compound concentration 10.0 uM) it was 19%. The inhibition in assay [8] (setting [17]) is 6%; in assay [8] (Compound concentration 0.01 uM), 6%; in [8] (Compound concentration 0.1 uM), 18%; in assay [8] (Compound concentration 1.0 uM), 24%; in assay [8] (Compound concentration 10.0 uM), 42%; in [9] (setting [17]) it was 7%. Also, the inhibition is 2% in [9] (Compound concentration 0.01 uM); 17% in [9] (Compound concentration 0.1 uM); 10% in [9] (Compound concentration 1.0 uM); 15% in assay [9] (Compound concentration 10.0 uM); 10% in assay [10]; 6% in assay [11]. Also, the inhibition is 15% in assay [12]; 5% in assay [13]; -4% in assay [14]; 6% in [15]; -7% in [16]. Also, the IC50 in [6] was 5 nM (active).
